Read-outs that look alike come from different tables or passages of the source. Numbered stars: 1 amine (or outer) side, 2 acyl side, 3 side chain; on linkers, the order of the positions; unused ones are H or OH. Square brackets hold non-standard residues; d marks the D form. Side chains are listed from the residue outwards. * marks the point of attachment. C18 diacid = O=C(O)CCCCCCCCCCCCCCCCC(=O)*; γGlu = O=C(O)[C@H](CCC(=O)[*:2])N[*:1]; AEEA = NCCOCCOCC(=O)O; Aib = CC(C)(N)C(=O)O
Tests used:
[1] = Chemical stability assessment in formulation (UPLC-UV-MS purity loss at 37° C.); assay type: physicochemical; settings: 8 mM phosphate buffer pH 7.4, 1 mg/mL, 2 weeks
Procedure: The assay was performed to investigate the extend of chemical degradation in vitro over time upon incubation at 37° C. for a period of 2 weeks.
Peptide solutions were prepared by dissolving freeze-dried powder in 8 mM phosphate buffer pH 7.4 to a target of 1 mg/mL. The pH of peptide solutions was adjusted to 7.4 with 0.02 M HCl or 0.02 M NaOH. Samples were filled in Agilent HPLC vials with fixed insert. Vials were capped to prevent evaporation. The HPLC vials were incubated at 37° C. and samples were withdrawn at different time points over a period of 2 weeks, flash frozen at −80° C., and stored at −20° C. until analysis.
A flow-rate of 100 μL/min was delivered with a Binary solvent manager pump having 0.1% formic acid in water as solvent A and 0.1% formic acid in acetonitrile as solvent B. Gradient elution was carried out using 20% B from 0 to 2 min followed by 20 to 50% B from 2 to 20 min in a total run time of 30 min.

[2] = target: T1, human GIP receptor (hGIPR) (Homo sapiens, UniProt P48546); experiment: GIP receptor assay, method A (CRE-luciferase reporter, BHK cells); assay type: cell-based
T1 construct: expressed in transfected cells
T1 sequence (P48546 22-466): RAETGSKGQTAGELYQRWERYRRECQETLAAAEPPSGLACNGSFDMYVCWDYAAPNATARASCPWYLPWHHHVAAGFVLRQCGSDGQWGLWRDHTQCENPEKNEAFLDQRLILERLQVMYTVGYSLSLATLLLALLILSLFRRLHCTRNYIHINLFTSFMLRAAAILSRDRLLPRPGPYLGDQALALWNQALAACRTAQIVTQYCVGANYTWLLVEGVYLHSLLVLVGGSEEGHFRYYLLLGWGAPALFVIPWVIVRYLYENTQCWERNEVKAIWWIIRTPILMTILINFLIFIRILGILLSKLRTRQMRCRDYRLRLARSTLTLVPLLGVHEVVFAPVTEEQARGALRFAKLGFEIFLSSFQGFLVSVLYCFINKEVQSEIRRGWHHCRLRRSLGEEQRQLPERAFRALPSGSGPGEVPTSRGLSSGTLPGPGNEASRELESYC
In short: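 BHK cells co-expressing hGIPR and a CRE-luciferase reporter were stimulated for 3 h at 37 °C with a 7-point, 10-fold compound titration in duplicate. Buffer was DMEM, 10 mM HEPES, 1% ovalbumin, 0.1% Pluronic F-68, without HSA or with 1% (w/v) HSA. EC50 [pM] came from four-parameter logistic fits of luminescence.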

[3] = target: T2, human GLP-1 receptor (hGLP-1R) (Homo sapiens, UniProt P43220); experiment: GLP-1 receptor assay, method A (CRE-luciferase reporter, BHK cells); assay type: cell-based
T2 construct: expressed in transfected cells
T2 sequence (P43220 24-463): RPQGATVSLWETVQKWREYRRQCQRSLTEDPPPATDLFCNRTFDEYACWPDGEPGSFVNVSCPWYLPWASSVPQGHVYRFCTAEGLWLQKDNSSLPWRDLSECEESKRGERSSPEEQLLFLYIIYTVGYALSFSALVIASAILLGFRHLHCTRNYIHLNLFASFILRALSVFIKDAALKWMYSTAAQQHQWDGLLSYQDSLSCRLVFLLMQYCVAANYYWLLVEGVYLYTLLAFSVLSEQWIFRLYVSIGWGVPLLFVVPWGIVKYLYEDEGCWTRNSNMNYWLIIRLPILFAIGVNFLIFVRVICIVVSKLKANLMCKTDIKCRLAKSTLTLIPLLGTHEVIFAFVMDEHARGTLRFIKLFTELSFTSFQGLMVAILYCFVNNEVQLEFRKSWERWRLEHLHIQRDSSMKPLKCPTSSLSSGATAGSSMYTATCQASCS
In short: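 Read-out: steadylite Plus luminescence after 30 min shaking at room temperature in the dark. hGLP-1R BHK CRE-Luc cells were stimulated for 3 h at 37° C, 5% CO2. Runs were done in the absence and presence of 1% (w/v) HSA.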

[4] = target: T3, human amylin receptor (hAMYR3) (Homo sapiens, UniProt O60896+P30988); experiment: Amylin receptor assay, method A (CRE-luciferase reporter, BHK cells); assay type: cell-based
T3 construct: host or cells: BHK cells (Hollex-1 line expressing hCTR(a) and CRE-Luc), further transfected with human RAMP3
T3 sequence (P30988 25-474): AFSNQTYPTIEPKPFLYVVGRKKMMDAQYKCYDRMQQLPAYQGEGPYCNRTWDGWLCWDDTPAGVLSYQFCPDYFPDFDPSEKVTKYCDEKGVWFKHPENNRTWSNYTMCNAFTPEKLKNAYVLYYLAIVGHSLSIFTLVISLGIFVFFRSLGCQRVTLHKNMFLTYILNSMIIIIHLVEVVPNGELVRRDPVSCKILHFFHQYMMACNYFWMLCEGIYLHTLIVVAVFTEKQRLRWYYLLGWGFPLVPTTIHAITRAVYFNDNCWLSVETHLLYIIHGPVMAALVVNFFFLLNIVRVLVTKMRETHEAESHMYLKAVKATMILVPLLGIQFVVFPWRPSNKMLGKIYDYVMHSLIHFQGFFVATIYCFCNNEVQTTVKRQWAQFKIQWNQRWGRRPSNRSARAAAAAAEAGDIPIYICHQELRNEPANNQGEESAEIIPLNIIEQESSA
T3 sequence (O60896 24-148): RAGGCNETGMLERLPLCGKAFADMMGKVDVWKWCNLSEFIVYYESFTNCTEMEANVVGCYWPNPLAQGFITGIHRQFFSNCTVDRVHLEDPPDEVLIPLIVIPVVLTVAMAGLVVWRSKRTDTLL

[5] = hGIPR Potency, 1% HSA, EC50, method A, in the presence of 1% HSA
[6] = method A, absence of HSA, read-out: hGIPR Potency, no HSA, EC50
[7] = hGLP-1R Potency, 1% HSA, EC50, method A, in the presence of 1% HSA
[8] = method A, absence of HSA, read-out: hGLP-1R Potency, no HSA, EC50
[9] = hAMYR3 Potency, 1% HSA, EC50, method A, in the presence of 1% HSA
[10] = method A, absence of HSA, read-out: hAMYR3 Potency, no HSA, EC50

Row | Compound | Purity loss per week at 37° C. [1] [%] | EC50 [2, 5] [nM] | EC50 [2, 6] [nM] | EC50 [3, 7] [nM] | EC50 [3, 8] [nM] | EC50 [4, 9] [nM] | EC50 [4, 10] [nM]
1 | CC[C@H](C)[C@H](NC(=O)[C@H](CCC(=O)O)NC(=O)[C@H](CCC(=O)O)NC(=O)[C@H](CC(C)C)NC(=O)[C@H](CC(C)C)NC(=O)[C@H](CCCCNC(=O)COCCOCCNC(=O)COCCOCCNC(=O)CC[C@H](NC(=O)CCCCCCCCCCCCCCCCCCC(=O)O)C(=O)O)NC(=O)[C@H](CO)NC(=O)[C@H](Cc1ccc(O)cc1)NC(=O)[C@H](CC(=O)O)NC(=O)[C@H](CO)NC(=O)[C@@H](NC(=O)[C@H](Cc1ccccc1)NC(=O)[C@@H](NC(=O)CNC(=O)[C@H](CCC(=O)O)NC(=O)C(C)(C)NC(=O)[C@@H](N)Cc1ccc(O)cc1)[C@@H](C)O)[C@@H](C)O)C(=O)N[C@@H](C)C(=O)N[C@@H](C)C(=O)N[C@@H](CCCNC(=N)N)C(=O)N[C@@H](CCC(=O)O)C(=O)N[C@@H](Cc1ccccc1)C(=O)N[C@H](C(=O)N[C@@H](CCC(=O)O)C(=O)N[C@@H](Cc1c[nH]c2ccccc12)C(=O)N[C@@H](CC(C)C)C(=O)N[C@@H](CC(C)C)C(=O)N[C@@H](C)C(=O)NCC(=O)NCC(=O)N1CCC[C@H]1C(=O)N[C@@H](CO)C(=O)N[C@@H](CO)C(=O)NCC(=O)N[C@@H](C)C(=O)NCC(=O)N[C@@H](C)C(=O)N[C@@H](CO)C(=O)N[C@@H](Cc1c[nH]cn1)C(=O)N[C@@H](CC(C)C)C(=O)N[C@@H](CO)C(=O)N[C@H](C(=O)N[C@@H](C)C(=O)N[C@@H](CCC(N)=O)C(=O)N[C@@H](CC(C)C)C(=O)NCC(=O)N[C@@H](CCCNC(=N)N)C(=O)N[C@@H](CC(C)C)C(=O)N[C@@H](CO)C(=O)N[C@@H](C)C(=O)N[C@@H](CCC(=O)O)C(=O)N[C@@H](CC(C)C)C(=O)N[C@@H](Cc1c[nH]cn1)C(=O)N[C@@H](CCC(N)=O)C(=O)N[C@@H](CC(C)C)C(=O)N[C@@H](C)C(=O)N[C@H](C(=O)N[C@@H](CCC(=O)O)C(=O)N1CCC[C@H]1C(=O)N[C@@H](CCCNC(=N)N)C(=O)N[C@H](C(=O)N[C@@H](CCC(=O)O)C(=O)N[C@H](C(=O)NCC(=O)N[C@@H](CO)C(=O)NCC(=O)N[C@@H](CO)C(=O)N1CCC[C@H]1C(N)=O)[C@@H](C)O)[C@@H](C)O)[C@@H](C)O)[C@@H](C)O)[C@@H](C)CC [Compound 184] | 1.0 | – | – | – | – | – | –
2 | CC[C@H](C)[C@H](NC(=O)[C@H](CCC(=O)O)NC(=O)[C@H](CCC(=O)O)NC(=O)[C@H](CC(C)C)NC(=O)[C@H](CC(C)C)NC(=O)[C@H](CCCCNC(=O)COCCOCCNC(=O)COCCOCCNC(=O)CC[C@H](NC(=O)CCCCCCCCCCCCCCCCCCC(=O)O)C(=O)O)NC(=O)[C@H](CO)NC(=O)[C@H](Cc1ccc(O)cc1)NC(=O)[C@H](CC(=O)O)NC(=O)[C@H](CO)NC(=O)[C@@H](NC(=O)[C@H](Cc1ccccc1)NC(=O)[C@@H](NC(=O)CNC(=O)[C@H](CCC(=O)O)NC(=O)C(C)(C)NC(=O)[C@@H](N)Cc1ccc(O)cc1)[C@@H](C)O)[C@@H](C)O)C(=O)N[C@@H](C)C(=O)N[C@@H](C)C(=O)N[C@@H](CCCNC(=N)N)C(=O)N[C@@H](CCC(=O)O)C(=O)N[C@@H](Cc1ccccc1)C(=O)N[C@H](C(=O)N[C@@H](CCC(=O)O)C(=O)N[C@@H](Cc1c[nH]c2ccccc12)C(=O)N[C@@H](CC(C)C)C(=O)N[C@@H](CC(C)C)C(=O)N[C@@H](C)C(=O)NCC(=O)NCC(=O)N1CCC[C@H]1C(=O)N[C@@H](CO)C(=O)N[C@@H](CO)C(=O)N[C@@H](CCC(=O)O)C(=O)N[C@@H](C)C(=O)NCC(=O)N[C@@H](C)C(=O)N[C@@H](CO)C(=O)N[C@@H](Cc1c[nH]cn1)C(=O)N[C@@H](CC(C)C)C(=O)N[C@@H](CO)C(=O)N[C@H](C(=O)N[C@@H](C)C(=O)N[C@@H](CCC(N)=O)C(=O)N[C@@H](CC(C)C)C(=O)NCC(=O)N[C@@H](CCCNC(=N)N)C(=O)N[C@@H](CC(C)C)C(=O)N[C@@H](CO)C(=O)N[C@@H](C)C(=O)N[C@@H](CCC(=O)O)C(=O)N[C@@H](CC(C)C)C(=O)N[C@@H](Cc1c[nH]cn1)C(=O)N[C@@H](CCC(N)=O)C(=O)N[C@@H](CC(C)C)C(=O)N[C@@H](C)C(=O)N[C@H](C(=O)N[C@@H](CCC(=O)O)C(=O)N1CCC[C@H]1C(=O)N[C@@H](CCCNC(=N)N)C(=O)N[C@H](C(=O)N[C@@H](CCC(=O)O)C(=O)N[C@H](C(=O)NCC(=O)N[C@@H](CO)C(=O)NCC(=O)N[C@@H](CO)C(=O)N1CCC[C@H]1C(N)=O)[C@@H](C)O)[C@@H](C)O)[C@@H](C)O)[C@@H](C)O)[C@@H](C)CC [Compound 185] | 1.7 | – | – | – | – | – | –
3 | CC[C@H](C)[C@H](NC(=O)[C@H](CCC(=O)O)NC(=O)[C@H](CCC(=O)O)NC(=O)[C@H](CC(C)C)NC(=O)[C@H](CC(C)C)NC(=O)[C@H](CCCCNC(=O)COCCOCCNC(=O)COCCOCCNC(=O)CC[C@H](NC(=O)CCCCCCCCCCCCCCCCCCC(=O)O)C(=O)O)NC(=O)[C@H](CO)NC(=O)[C@H](Cc1ccc(O)cc1)NC(=O)[C@H](CC(=O)O)NC(=O)[C@H](CO)NC(=O)[C@@H](NC(=O)[C@H](Cc1ccccc1)NC(=O)[C@@H](NC(=O)CNC(=O)[C@H](CCC(=O)O)NC(=O)C(C)(C)NC(=O)[C@@H](N)Cc1ccc(O)cc1)[C@@H](C)O)[C@@H](C)O)C(=O)N[C@@H](C)C(=O)N[C@@H](C)C(=O)N[C@@H](CCCNC(=N)N)C(=O)N[C@@H](CCC(=O)O)C(=O)N[C@@H](Cc1ccccc1)C(=O)N[C@H](C(=O)N[C@@H](CCC(=O)O)C(=O)N[C@@H](Cc1c[nH]c2ccccc12)C(=O)N[C@@H](CC(C)C)C(=O)N[C@@H](CC(C)C)C(=O)N[C@@H](C)C(=O)NCC(=O)NCC(=O)N1CCC[C@H]1C(=O)N[C@@H](CO)C(=O)N[C@@H](CO)C(=O)NCC(=O)N[C@@H](C)C(=O)NCC(=O)N[C@@H](C)C(=O)N[C@@H](CO)C(=O)N[C@@H](CCC(=O)O)C(=O)N[C@@H](CC(C)C)C(=O)N[C@@H](CO)C(=O)N[C@H](C(=O)N[C@@H](C)C(=O)N[C@@H](CCC(N)=O)C(=O)N[C@@H](CC(C)C)C(=O)NCC(=O)N[C@@H](CCCNC(=N)N)C(=O)N[C@@H](CC(C)C)C(=O)N[C@@H](CO)C(=O)N[C@@H](C)C(=O)N[C@@H](CCC(=O)O)C(=O)N[C@@H](CC(C)C)C(=O)N[C@@H](Cc1c[nH]cn1)C(=O)N[C@@H](CCC(N)=O)C(=O)N[C@@H](CC(C)C)C(=O)N[C@@H](C)C(=O)N[C@H](C(=O)N[C@@H](CCC(=O)O)C(=O)N1CCC[C@H]1C(=O)N[C@@H](CCCNC(=N)N)C(=O)N[C@H](C(=O)N[C@@H](CCC(=O)O)C(=O)N[C@H](C(=O)NCC(=O)N[C@@H](CO)C(=O)NCC(=O)N[C@@H](CO)C(=O)N1CCC[C@H]1C(N)=O)[C@@H](C)O)[C@@H](C)O)[C@@H](C)O)[C@@H](C)O)[C@@H](C)CC [Compound 186] | 1.0 | – | – | – | – | – | –
4 | H[Aib]HGTFTSDYSILLEEQAAREFIEWLLAGGPSK([AEEA-AEEA-γGlu-C18 diacid])GAGQAPGQAPGASHLSTAQTQRLSAELHELATLPRTETGSGSP-NH2 [Compound 47] | 2.6 | 0.162 | 0.00202 | 0.0675 | 0.00315 | 0.0558 | 0.00257
5 | H[Aib]HGTFTSDYSILLEEQAAREFIEWLLAGGPSK([AEEA-AEEA-γGlu-C18 diacid])GEASQLSTAALGRLSAELHGLATLPRTETGSGSP-NH2 [Compound 65] | 2.1 | 0.118 | 0.00189 | 0.1 | 0.00486 | 0.127 | 0.00284
6 | H[Aib]HGTFTSDYSILLEEQAAREFIEWLLAGGPSK([AEEA-AEEA-γGlu-C18 diacid])GEASQLSTAALGRLSAELHRLATLPRTETGSGSP-NH2 [Compound 73] | 2.8 | 0.0965 | 0.00498 | 0.0541 | 0.00455 | 0.0615 | 0.00199

— patent US20260174875A1 (Novo Nordisk A/S, priority 2023, published 2026)
